Results on two compounds are retold here after article PMC5578999, “Novel quinolone chalcones targeting colchicine-binding pocket kill multidrug-resistant cancer cells by inhibiting tubulin activity and MRP1 function” (Scientific Reports, 2017).

Data set [1] deals with non-cancerous cells (MCF 10A and 184B5). Briefly: SRB cell viability, cancer vs non-cancer cells. It is filed as cell-based. The note with it: cancer cells vs MCF 10A and 184B5. How it is done: and MCF10AT1 cells were cultured in Dulbecco's Modified Eagle's Medium/Ham's Nutrient Mixture F-12 (DME/F12) supplemented with 10% (volume/volume) FBS , 100 μg/ml streptom ycin and 100 units/ml penicillin, antim ycotic solution, 0.5 μg/ml hydrocortisone, 10 ng/ml human epiderm al growth factor (hEGF) and 5 μg/ml insulin, whereas MCF10CA1a cell line was cultured in DM EM supplemented with 10% FBS (volume/volume). […]
Dr. Susan Cole (Queen’s Universit y, Kingston, Ontario, Canada). The pacl itaxel-resistant MDA-MB-231TaxR cell line was generated in house b y culturing MDA-MB-231 cells (purchased from ATCC and authen ticated ) in the gradual l y incr easi ng con centr ations of pacl itax el until the concentration reached to 100 nM. Cell line authentication was carried out by Genetica DNA Laboratories (Burlington, NC) using a short tandem repeat (STR) profiling method (March 2015; […]
(§1) Cell viability, com binational i ndex and cell synchronization
Cell viability and proliferation were ex amined using a s ulforhodamine B (SRB) assa y as described previousl y (Hu et al., 2008). IC 50 values were calculat ed from si gmoidal dose-response cu rves gen erat ed b y at least two indepen dent ex periments , with each quadruplicate samples, using GraphPad Prism v.5.04 software (GraphPad Software, Inc, La J olla, CA). […]

For data set [2], the system named is KB-C-2. As to the kind of experiment: SRB cell viability, MDR1-overexpressing cells. Conditions: Homo sapiens, KB-C2; KB-C-2 MDR1-overexpressing cells. It is filed as cell-based. On the procedure:
(§2) human epidermoid carcinoma cell line and KB-C2, an isogenic MDR1- overexpressing drug-resistant cell line, were kindl y provided b y Dr. Amit K Tiwari, the Universit y of Toledo, OH. […]
(§3) Cell line authentication was carried out by Genetica DNA
as §1
(§4) Cell viability and proliferation were ex amined using a s ulforhodamine B (SRB) assa y as […]
(§5) IC 50 values were calculat ed from si gmoidal dose-response cu rves gen erat ed b y at least two indepen dent ex periments , with each quadruplicate samples, using GraphPad Prism v.5.04 software (GraphPad Software, Inc, La J olla, CA). […]
(§6) (sham) or presence of compound(s). […]

Data set [3] deals with KB-C-1. As to the kind of experiment: SRB cell viability, parental cells. It is filed as cell-based. The note with it: Homo sapiens, KBC-1; parental KB-C-1. On the procedure: as §2, §3, §1, §4, §5, §6
Data set [4] relates to SW-1271. Briefly: SRB cell viability. Conditions: SW1271. The class given is cell-based. How it is done:
as §3, §1, §4, §5, §6

In data set [5] the test system is H69AR. Briefly: SRB cell viability, multidrug-resistant cells. The note with it: for IC50: Homo sapiens, H69AR. The class given is cell-based. On the procedure: as §3, §1, §4, §5, §6
Data set [6] concerns the target T1, purified porcine tubulin (Sus scrofa, UniProt P02554).
T1 construct: purified porcine tubulin (T240, Cytoskeleton); purchased Cytoskeleton T240
As to the kind of experiment: Intrinsic tryptophan fluorescence quenching of tubulin. The class given is binding. How it is done:
A two-step extraction procedure was used to differentially extract tubulin heterodimers and microtubules from sham-treated cells or those treated with compounds as described previously. To determine the binding ability of CTR compounds to tubulin, the changes in the intrinsic tryptophan fluorescence of purified porcine tubulin (T240, Cytoskeleton) was measured as described previously. GraphPad Prism software was used to determine the dissociation constant of CTRs bound to tubulin, and the following formula was used: ∆F=∆Fmax×C/Kd+C Where, ΔF is the changes in the fluorescence intensity of the tubulin when bound by CTR; ΔFmax is the maximum change in the fluorescence intensity; C is compound concentration; and Kd is the dissociation constant of the compound. The experiment was repeated five times.

In data set [7] the target is T1, purified porcine tubulin. As to the kind of experiment: In vitro microtubule assembly (light scattering) assay. It is filed as biochemical. The note with it: 3 µmol/L CTR-17, 1 µmol/L CTR-20; 340 nm, one hour, 37 °C. How it is done:
Figure 5 CTRs inhibited microtubule polymerization by binding to tubulin through the colchicine-binding pocket. (a) CTRs inhibited microtubule polymerization in a similar manner to that of nocodazole. Purified porcine tubulin and 1.0 mmol/L GTP were added to reaction mixture (37 °C) containing 10 µmol/L paclitaxel (Tax), 3 µmol/L CTR-17, 1 µmol/L CTR-20, or 5 µmol/L nocodazole (Noco). Polymerization of microtubule was monitored every minute for one hour at 340 nm by spectrophotometry. Note that G-PEM buffer contains 400 µg of purified tubulin. (b) CTR-20 (and CTR-17; Supplementary Fig. S12) bound tubulin. CTR-20 quenched the intrinsic tryptophan fluorescence of tubulin in a dose-dependent manner. The changes in fluorescence intensity (∆F) were plotted against drug concentrations to determine the dissociation constant. […] CTR-20 (and CTR-17; Supplementary Fig. S12) depressed the fluorescence of the colchicine-tubulin complex in a dose-dependent manner. The fluorescence intensity of the final tubulin complex was used to determine the inhibitory concentration (Ki) using a modified Dixon plot. The fluorescence intensity was normalized by subtracting any intrinsic fluorescence of CTR-20 at given doses from that of the complex. “F” is the fluorescence of the CTR-colchicine-tubulin complex, and “F0” is the fluorescence of the colchicine-tubulin complex. […]

Data set [8] concerns KB-C-2. Briefly: SRB cell viability, MDR1-overexpressing cells. It is filed as cell-based, human. Conditions: KB-C-2 vs KB-C-1; Table S1.
Data set [9] is described as follows: Serum ALT and AST, ATH490 mice. Conditions: 30 days, paclitaxel 10 mg/kg, CTR 30 mg/kg, combinations 5 + 15 mg/kg; for ALT: sham 64.03± 4.04; for AST: sham 112.46 ± 4.74.
Protocol: For paclitaxel treatments, 40 mg/ml stock solution of paclitaxel (Sigma, MO) was prepared in DMSO. […] Alanine transaminase (ALT, SUP6001-c) and Aspartate transaminase (AST, SUP6002-c) color endpoint assay kits were purchased from ID Labs (London, Ontario, Canada).
Athymic mice engrafted with tumor cells were used to determine antitumor activity. […] When tumor size reached 5–6 mm in diameter (n = 4–5 per group), mice were randomly assigned into several groups and vehicle-treated or treated with drug(s). […] Animals were monitored for food and water consumption every day, and their body weights and tumor volumes were measured twice per week. Tumor volumes were measured with a digital caliper and were determined by the following formula: ½ length × width^2. Blood samples were collected via cardiac puncture and processed for ALT and AST measurements. The animals were then immediately euthanized by carbon dioxide.
carri ed out using GraphP ad Prism software. All values are pr esented as mean±S.E.M.
Comparison between each group was made b y p values determined using one-wa y ANOVA. The
p value of <0.05 is consi dered to be statisticall y significant. Each organ weight was norm alized
with total body mass (BM) as expressed in %.
ATH490 athymic mice were vehicle -treated (Sham) or treated with indicated compounds
and doses for 30 da ys , followed by harvesting liver ( and other o r gans ; Fi g. 7d) for an al ysis of
their toxic effects . […] ( b) Blood sera w erecollected from mice
treated with indicated compounds and doses, and then examinedthe levels of ALT and AST to
gain insight into liver toxicity.
All values ar e present ed as mean±S.E .M.
The nature of data set [10]: Body and organ weights, side effects. Conditions: CTR-17 30 mg/kg, CTR-20 30 mg/kg, paclitaxel 10 mg/kg; CD-1 or ATH490 strains.
Protocol: Athymic mice engrafted with tumor cells were used to determine antitumor activity. […] When tumor size reached 5–6 mm in diameter (n = 4–5 per group), mice were randomly assigned into several groups and vehicle-treated or treated with drug(s). […] Animals were monitored for food and water consumption every day, and their body weights and tumor volumes were measured twice per week. Tumor volumes were measured with a digital caliper and were determined by the following formula: ½ length × width^2. Blood samples were collected via cardiac puncture and processed for ALT and AST measurements. The animals were then immediately euthanized by carbon dioxide. Tumors and vital organs (spleen, kidney, liver and lung) were harvested and fixed in 10% buffered formalin at 4 °C overnight before being processed for a paraffin embedding. The paraffin-embedded blocks were then sectioned to 4–5 µm thick. Each section was stained with haematoxylin and eosin (H&E).

T1 sequence (P02554 whole entry): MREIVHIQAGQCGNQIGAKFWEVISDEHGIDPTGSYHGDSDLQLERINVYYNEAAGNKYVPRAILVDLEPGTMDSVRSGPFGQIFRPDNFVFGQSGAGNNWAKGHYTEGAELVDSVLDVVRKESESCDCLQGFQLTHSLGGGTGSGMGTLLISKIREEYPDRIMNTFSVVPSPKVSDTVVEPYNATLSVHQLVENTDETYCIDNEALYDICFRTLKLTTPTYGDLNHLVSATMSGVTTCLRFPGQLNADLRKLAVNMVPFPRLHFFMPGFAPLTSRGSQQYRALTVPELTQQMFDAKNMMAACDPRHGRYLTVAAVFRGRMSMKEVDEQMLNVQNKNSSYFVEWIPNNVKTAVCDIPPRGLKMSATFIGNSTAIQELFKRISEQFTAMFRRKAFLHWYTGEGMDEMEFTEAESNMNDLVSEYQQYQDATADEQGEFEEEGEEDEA
T1 sequence (P02550 whole entry partner): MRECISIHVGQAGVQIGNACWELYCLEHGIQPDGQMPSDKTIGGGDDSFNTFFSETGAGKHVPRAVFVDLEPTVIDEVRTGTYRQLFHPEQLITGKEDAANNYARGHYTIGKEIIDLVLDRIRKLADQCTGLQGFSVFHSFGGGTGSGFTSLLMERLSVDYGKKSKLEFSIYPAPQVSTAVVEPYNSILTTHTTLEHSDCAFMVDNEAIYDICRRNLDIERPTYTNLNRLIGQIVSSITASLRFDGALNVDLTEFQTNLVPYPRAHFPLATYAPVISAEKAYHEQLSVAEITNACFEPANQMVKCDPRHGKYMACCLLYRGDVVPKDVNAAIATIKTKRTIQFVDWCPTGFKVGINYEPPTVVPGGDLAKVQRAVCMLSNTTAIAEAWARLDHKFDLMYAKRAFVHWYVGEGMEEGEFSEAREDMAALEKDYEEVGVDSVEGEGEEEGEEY

For the compound `COc1ccccc1C(=O)/C=C/c1cc2ccccc2[nH]c1=O` [CTR-17, (E)-3-(3-(2-Methoxyphenyl)-3-oxoprop-1-enyl)quinolin-2(1H)-one], in data set [1], the “killed cancer cells more effectively than non-cancerous cells” value is 20–26 folds. The half-maximal inhibitory concentration (IC50) (usually the concentration that inhibits the measured activity by half) in data set [2] came to 650 ± 160 nM; in data set [3] it was 380 ± 70 nM; in data set [4], 1140 ± 40 nM; in data set [5], 520 ± 100 nM. In addition, the “Resistance (fold)” value in data set [5] (H69AR vs SW-1271, Table S1) came out at 0.45 fold; in [8], 1.71 fold. In data set [6], the Kd (commonly the constant that tells how readily two partners part at equilibrium) came out at 4.58 ± 0.95 µM. In addition, in data set [7], the “effect on microtubule polymerization” value is reported as “inhibit microtubule polymerization”. In addition, the ALT in [9] turned out to be 64.67± 5.26 IU/L. Besides, the AST in [9] is 114.13 ± 6.36 IU/L. Further, the “side effects (changes in body and organ weights)” value in data set [10] is on record as “did not cause any notable side effects”.
On to `COc1ccc2[nH]c(=O)c(/C=C/C(=O)c3ccccc3OC)cc2c1` [CTR-20, (E)-6-Methoxy-3-(3-(2-methoxyphenyl)-3-oxoprop-1-enyl) quinolin-2(1H)-one], for which, in [1], the “killed cancer cells more effectively than non-cancerous cells” value is 20–26 folds. Moreover, the IC50 came out at 250 ± 30 nM in [2], 100 ± 10 nM in data set [3], 1950 ± 10 nM in data set [4] and 130 ± 10 nM in data set [5]. The compound further registered a Kd in data set [6] of 5.09 ± 0.49 µM. For the same compound, the “effect on microtubule polymerization” value in data set [7] is “inhibit microtubule polymerization”. Moreover, in [8], the “Resistance (fold)” value is 2.50 fold. Besides, the ALT in data set [9] is on record as 50.50± 9.96 IU/L. For the same compound, in [9], the AST is on record as 118.22±17.00 IU/L. Further, the “side effects (changes in body and organ weights)” value in data set [10] is “did not cause any notable side effects”.
